Measured values reported in ChEMBL document CHEMBL4425099, “Use of Osmotic Pumps to Establish the Pharmacokinetic-Pharmacodynamic Relationship and Define Desirable Human Performance Characteristics for Aggrecanase Inhibitors” (J Med Chem, 2016).
≈ marks a conversion by molar mass, not a printed value.

Legend:
Rattus norvegicus [1] = assay: Reduction in ADAMTS-4/ADAMTS-5 mediated aggrecan cleavage products in Lewis rat model of MIA assessed as aggrecanase-cleaved fragments at 30 mg/kg, po bid administered post 3 days MIA induction measured after 4 hrs of last dosage on day 7 by NITEGE sandwich ELISA; assay type: functional
Rattus norvegicus [2] = assay: Reduction in ADAMTS-4/ADAMTS-5 mediated aggrecan cleavage products in Lewis rat model of MIA assessed as aggrecanase-cleaved fragments at 10 mg/kg, po bid administered post 3 days MIA induction measured after 4 hrs of last dosage on day 7 by NITEGE sandwich ELISA; assay type: functional
Matrilysin = molecular target: T1, Matrilysin (Homo sapiens, UniProt P09237); assay: Inhibition of human MMP7 using Mca-PQGL-(3-[2,4-dinitrophenyl]-L-2,3-diaminopropionyl)-AR-OH as substrate measured after 2 to 4 hrs by fluorescence analysis
T1 sequence (P09237 whole entry): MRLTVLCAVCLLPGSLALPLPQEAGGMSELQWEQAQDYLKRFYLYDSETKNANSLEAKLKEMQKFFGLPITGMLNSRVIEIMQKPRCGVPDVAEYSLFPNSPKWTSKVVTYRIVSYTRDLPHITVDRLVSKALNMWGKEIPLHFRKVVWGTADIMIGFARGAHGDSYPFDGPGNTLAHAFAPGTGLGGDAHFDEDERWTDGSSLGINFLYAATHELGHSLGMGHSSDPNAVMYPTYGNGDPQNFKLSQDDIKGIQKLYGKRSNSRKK

[3] = Cmax in Lewis rat plasma at 10 mg/kg, po; assay type: ADME, organism-based; design: dose 10 mg/kg, route oral
[4] = Plasma concentration in Lewis rat model of MIA at 10 mg/kg, po bid administered post 3 days MIA induction measured after 4 hrs of last dosage on day 7; assay type: ADME, organism-based
[5] = Ratio of plasma concentration in Lewis rat model of MIA at 30 mg/kg, po bid administered post 3 days MIA induction measured after 4 hrs of last dosage on day 7 to IC50 for human ADAMTS5 in presence of Lewis rat plasma; assay type: ADME, organism-based; conditions: in vivo
[6] = AUC in Lewis rat at 10 mg/kg, po; assay type: ADME, organism-based; conditions: in vivo
Interstitial collagenase = molecular target: T2, Interstitial collagenase (Homo sapiens, UniProt P03956); assay: Inhibition of human MMP1 using Mca-PQGL-(3-[2,4-dinitrophenyl]-L-2,3-diaminopropionyl)-AR-OH as substrate measured after 2 to 4 hrs by fluorescence analysis
T2 sequence (P03956 whole entry): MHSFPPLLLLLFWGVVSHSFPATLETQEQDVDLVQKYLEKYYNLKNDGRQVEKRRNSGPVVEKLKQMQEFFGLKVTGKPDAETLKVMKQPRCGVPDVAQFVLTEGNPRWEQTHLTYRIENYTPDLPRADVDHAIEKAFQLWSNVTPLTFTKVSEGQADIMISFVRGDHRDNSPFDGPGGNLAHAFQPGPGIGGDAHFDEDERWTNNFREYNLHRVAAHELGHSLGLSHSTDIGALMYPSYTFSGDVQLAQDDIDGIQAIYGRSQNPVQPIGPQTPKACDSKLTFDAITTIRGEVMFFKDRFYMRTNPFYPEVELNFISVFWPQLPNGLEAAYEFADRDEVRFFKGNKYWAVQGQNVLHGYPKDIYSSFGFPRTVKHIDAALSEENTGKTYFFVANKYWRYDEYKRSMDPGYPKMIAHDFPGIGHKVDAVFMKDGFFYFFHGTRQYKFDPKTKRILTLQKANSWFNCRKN

[7] = Ratio of plasma concentration in Lewis rat model of MIA at 10 mg/kg, po bid administered post 3 days MIA induction measured after 4 hrs of last dosage on day 7 to IC50 for human ADAMTS5 in presence of Lewis rat plasma; assay type: ADME, organism-based; conditions: in vivo
[8] = Plasma concentration in Lewis rat model of MIA at 30 mg/kg, po bid administered post 3 days MIA induction measured after 4 hrs of last dosage on day 7; assay type: ADME, organism-based
[9] = Plasma concentration in Lewis rat model of MIA at 100 mg/kg, po bid administered post 3 days MIA induction measured after 4 hrs of last dosage on day 7; assay type: ADME, organism-based
Rattus norvegicus [10] = assay: Reduction in ADAMTS-4/ADAMTS-5 mediated aggrecan cleavage products in Lewis rat model of MIA assessed as aggrecanase-cleaved fragments at 100 mg/kg, po bid administered post 3 days MIA induction measured after 4 hrs of last dosage on day 7 by NITEGE sandwich ELISA; assay type: functional
[11] = Half life in cynomolgus monkey at 1 mg/kg, iv or 5 mg/kg, po; assay type: ADME, organism-based, Macaca fascicularis; conditions: in vivo
[12] = Ratio of plasma concentration in Lewis rat model of MIA at 30 mg/mL, sc administered through infusion pump post 3 days MIA induction to IC50 for human ADAMTS5 in presence of rat plasma; assay type: ADME, organism-based; conditions: in vivo, 72 h
[13] = Volume of distribution at steady state in rat at 1 mg/kg, iv or 10 mg/kg, po; assay type: ADME, organism-based; conditions: in vivo, read-out: Vdss
[14] = Fraction unbound in rat plasma; assay type: ADME, cell-free
[15] = Solubility of the compound at pH 2.2; assay type: physicochemical; conditions: buffer
[16] = Lipophilicity, log P of the compound; assay type: physicochemical; conditions: octanol/water
Rattus norvegicus [17] = assay: Reduction in ADAMTS-4/ADAMTS-5 mediated aggrecan cleavage products in Lewis rat model of MIA assessed as aggrecanase-cleaved fragments at 30 mg/mL, sc administered through infusion pump post 3 days MIA induction measured after 4 hrs of last dosage on day 7 by NITEGE sandwich ELISA; assay type: functional
[18] = Half life in dog at 3 mg/kg, iv or 5 mg/kg, po; assay type: ADME, organism-based, Canis lupus familiaris; conditions: in vivo
[19] = Clearance in rat at 1 mg/kg, iv or 10 mg/kg, po; assay type: ADME, organism-based; conditions: in vivo
[20] = Volume of distribution at steady state in dog at 3 mg/kg, iv or 5 mg/kg, po; assay type: ADME, organism-based, Canis lupus familiaris; conditions: in vivo, read-out: Vdss
[21] = Fraction unbound in human plasma; assay type: ADME, cell-free
[22] = Ratio of plasma concentration in Lewis rat model of MIA at 10 mg/mL, sc administered through infusion pump post 3 days MIA induction to IC50 for human ADAMTS5 in presence of rat plasma; assay type: ADME, organism-based; conditions: in vivo, 72 h
[23] = Dissociation constant, acidic pKa of the compound; assay type: physicochemical
[24] = Fraction unbound in cynomolgus monkey plasma; assay type: ADME, cell-free, Macaca fascicularis
[25] = Volume of distribution at steady state in cynomolgus monkey at 1 mg/kg, iv or 5 mg/kg, po; assay type: ADME, organism-based, Macaca fascicularis; conditions: in vivo, read-out: Vdss
[26] = Half life in rat at 1 mg/kg, iv or 10 mg/kg, po; assay type: ADME, organism-based; conditions: in vivo
[27] = Fraction unbound in human liver microsomes; assay type: ADME, Microsome
[28] = Oral bioavailability in cynomolgus monkey at 5 mg/kg; assay type: ADME, organism-based, Macaca fascicularis; conditions: in vivo
[29] = Clearance in cynomolgus monkey at 1 mg/kg, iv or 5 mg/kg, po; assay type: ADME, organism-based, Macaca fascicularis; conditions: in vivo
[30] = Fraction unbound in dog plasma; assay type: ADME, cell-free, Canis lupus familiaris
[31] = Plasma concentration in Lewis rat model of MIA at 30 mg/mL, sc administered through infusion pump post 3 days MIA induction; assay type: ADME, organism-based
[32] = Clearance in dog at 3 mg/kg, iv or 5 mg/kg, po; assay type: ADME, organism-based, Canis lupus familiaris; conditions: in vivo
[33] = Oral bioavailability in dog at 5 mg/kg; assay type: ADME, organism-based, Canis lupus familiaris; conditions: in vivo
[34] = Solubility of the compound at pH 7.7; assay type: physicochemical; conditions: buffer

SMILES: CCn1ccnc1[C@]1(CNC(=O)c2cc3cc(C(F)(F)F)ccc3o2)NC(=O)NC1=O
- inhibition in vivo at 30 mg/kg (Rattus norvegicus [1]): 35%
- inhibition in vivo at 10 mg/kg (Rattus norvegicus [2]): 19%
- IC50 (Matrilysin): 100 µM
- Cmax [3]: 18 µM
- concentration at 4 h [4]: 0.93 µM
- Ratio [5]: 54
- AUC [6]: 28 µM·h
- IC50 (Interstitial collagenase): 100 µM
- Ratio [7]: 14
- concentration at 4 h [8]: 3.6 µM
- concentration at 4 h [9]: 11 µM
- inhibition in vivo at 100 mg/kg (Rattus norvegicus [10]): 49%

SMILES: Cn1ccnc1[C@]1(CNC(=O)c2cc3cc(Cl)ccc3o2)NC(=O)NC1=O
- IC50 (Matrilysin): 100 µM
- Cmax [3]: 11 µM
- IC50 (Interstitial collagenase): 19 µM

SMILES: Cn1ccnc1[C@]1(CNC(=O)c2cc3cc(C(F)(F)F)ccc3o2)NC(=O)NC1=O
- inhibition in vivo at 30 mg/kg (Rattus norvegicus [1]): 53%
- half-life [11]: 6.5 h
- inhibition in vivo at 10 mg/kg (Rattus norvegicus [2]): 32%
- Ratio [12]: 100
- Vd [13]: 0.31 L/kg
- fraction unbound [14]: 0.143
- solubility [15]: 1750 µg/mL (≈ 4150 µM)
- logP [16]: 1.63
- IC50 (Matrilysin): 100 µM
- inhibition (INH) (Rattus norvegicus [17]): 76%
- half-life [18]: 5.7 h
- clearance [19]: 4.8 mL/min/kg
- concentration at 4 h [4]: 0.51 µM
- Vd [20]: 0.52 L/kg
- fraction unbound [21]: 0.245
- Ratio [22]: 31
- Ratio [5]: 46
- pKa [23]: 7.35
- fraction unbound [24]: 0.248
- Vd [25]: 0.59 L/kg
- IC50 (Interstitial collagenase): 100 µM
- half-life [26]: 1.9 h
- fraction unbound [27]: 0.719
- bioavailability [28]: 76%
- Ratio [7]: 15
- clearance [29]: 7.3 mL/min/kg
- concentration at 4 h [8]: 1.6 µM
- fraction unbound [30]: 0.196
- concentration at 72 h [31]: 3.6 µM
- clearance [32]: 4.8 mL/min/kg
- concentration at 4 h [9]: 11 µM
- inhibition in vivo at 100 mg/kg (Rattus norvegicus [10]): 68%
- bioavailability [33]: 93%

SMILES: O=C1NC(=O)[C@](CNC(=O)c2cc3cc(C(F)(F)F)ccc3o2)(C2CC2)N1
- half-life [11]: 12 h
- Vd [13]: 3.6 L/kg
- fraction unbound [14]: 0.206
- logP [16]: 2.29
- IC50 (Matrilysin): 100 µM
- half-life [18]: 9.1 h
- clearance [19]: 13 mL/min/kg
- Vd [20]: 0.92 L/kg
- fraction unbound [21]: 0.255
- pKa [23]: 8.52
- fraction unbound [24]: 0.229
- Vd [25]: 0.8 L/kg
- IC50 (Interstitial collagenase): 50 µM
- half-life [26]: 3.8 h
- solubility [34]: 16 µg/mL (≈ 42 µM)
- fraction unbound [27]: 0.557
- bioavailability [28]: 100%
- clearance [29]: 1 mL/min/kg
- fraction unbound [30]: 0.215
- clearance [32]: 1.3 mL/min/kg
- bioavailability [33]: 74%

SMILES: CCn1ccnc1[C@]1(CNC(=O)c2cc3cc(Cl)ccc3o2)NC(=O)NC1=O
- Cmax [3]: 23 µM
- AUC [6]: 20 µM·h

SMILES: Cc1cnc([C@]2(CNC(=O)c3cc4cc(Cl)ccc4o3)NC(=O)NC2=O)n1C
- Cmax [3]: 18 µM
- AUC [6]: 27 µM·h

SMILES: Cc1cnc([C@]2(CNC(=O)c3cc4cc(C(F)(F)F)ccc4o3)NC(=O)NC2=O)n1C
- inhibition in vivo at 30 mg/kg (Rattus norvegicus [1]): 45%
- inhibition in vivo at 10 mg/kg (Rattus norvegicus [2]): 17%
- IC50 (Matrilysin): 100 µM
- Cmax [3]: 11 µM
- concentration at 4 h [4]: 1.4 µM
- Ratio [5]: 76
- AUC [6]: 21 µM·h
- IC50 (Interstitial collagenase): 100 µM
- Ratio [7]: 22
- concentration at 4 h [8]: 4.8 µM
- concentration at 4 h [9]: 31 µM
- inhibition in vivo at 100 mg/kg (Rattus norvegicus [10]): 62%
